# From patent US20130310347A1, “MULTI-MODALITY MOLECULAR IMAGING HIGH-THROUGHPUT ASSAY FOR IDENTIFYING HEAT SHOCK PROTEIN 90 (HSP90) INHIBITORS” (The Board of Trustees of the Leland Stanford Junior …, priority 2012, published 2013)
# What was measured:
# [1] = test system: 293T cells stably expressing split RL reporters; assay: Cell Titer-Blue cell proliferation assay; assay type: cell-based; conditions: Homo sapiens, HEK-293T
# Procedure: Inhibition of cell proliferation at 20 μM was determined by cell-titer blue assays and toxic compounds were eliminated. The IC50 values for inhibition of bioluminescence signals (BLI) in cells stably expressing Hsp90(α/β)/p23 split RL reporters and the inhibition of cell proliferation for the top 19 compounds are shown in Table 1, Example 15, and their structures are shown in FIGS. 1A-1D.
# Baseline complemented RL activities were determined 90 mins after addition of 20 μl of ENDUREN® (10 μM final concentration) (Promega, Madison, Wis.) using the Analyst GT (Molecular Device, Sunnyvale, Calif.), with an acquisition time of 0.2 sec per well. Cells were incubated with compounds for 24 h prior to re-determination of complemented RL activities, and normalized to the mean RL activities of untreated cells in columns 1-2. Another small molecule chemical library with 30,176 compounds (SPECS, Wakefield, R.I.) was also used in screening modulators of Hsp90(α/β)/p23 inhibitors (at 8.3 μM, one drug per well for initial screening). For dose response/confirmation assay the compounds were tested in duplicate in an 8 point (0.156-20 μM) dose response assay for RL activities for both Hps90(α/β)/p23 interactions. The effect of each compound on cell proliferation at 20 μM was determined using Cell Titer-Blue assay in duplicate wells. […]
# [2] = test system: 293T Hsp90(α/β)/p23-FG xenografts; assay: 18F-FDG small animal PET/CT of tumor glucose metabolism; assay type: in vivo, mice
# Procedure: FIG. 8B is a graph illustrating quantitation of the effect of CP9 on inhibition of glucose metabolism. The PET image of each mouse and each site at each time point was reconstructed and quantified using the OSEM 2D algorithm. The increase in max % ID/g at 43 h relative to 0 hr is shown as average±S.E.M. CP9 led to significant decrease in glucose metabolism, compared to carrier control treated mice (p<0.005).
# ^18F-FDG PET/CT has been used for repetitive and non-invasive monitoring of chemotherapy responses both in small animals and in humans (Aliaga et al., (2007) Mol. Imaging. Biol. 9: 144-150; de Geus-Oei et al., (2009) J. Nucl. Med. 50(Suppl 1): 43S-54S). Since CP9 inhibits glucose metabolism in cancer cells (FIG. 6B), its effect in the same cohort of living mice used for BLI (FIGS. 7A-7C) was monitored by small animal PET/CT imaging using ^18F-FDG. […] Baseline ^18F-FDG uptake in tumor-bearing mice was determined pre-treatment with four doses of carrier control (DMSO) or CP9 (80 mg/kg in DMSO) (FIG. 8A). The % max ID/g of ^18F-FDG uptake was determined by the OSEM2D method upon normalization of injected dose (Wiant et al., (2010) Med. Phys. 37: 1169-1182). The % increase in ^18F-FDG uptake at 43 h relative to 0 h was determined for each tumor site. […]
# pAkt/total Akt and Raf-1 = assay: Western blotting of client proteins in 293T-FG cells (CP9 analogues); assay type: cell-based, human; conditions: different concentrations
# Procedure: Cells treated with PU-H71 and 17-AAG (2.5 μM) served as positive controls. α-Tubulin was used as the loading control.
# To determine if the reduction in IC50 for Hsp90(α/β)/p23 interactions also led to improved efficacy of A17 as an Hsp90 inhibitor, 293T-FG cells were treated with different concentrations of CP9 and A17. PU-H71 and 17AAG were used as positive controls. The expression of pAkt/total Akt and Raf-1 was determined by western blotting. […] Since A17 has a lower logP value (partition coefficient) than CP9 (2.8 versus 4.1), it may be more hydrophilic, have less non-specific binding to serum proteins and thus better bioavailability in tumors.
# CP9 (0.3-10 μM), 17-AAG (10 μM) and PU-H71 (5 μM) were used as positive controls in triplicate wells. The efficacy of the analogues in disruption of Hsp90(α/β)/p23 and cell proliferation were monitored by RL imaging (2 h post upon addition of ENDUREN® at 30 μM final concentration) followed by FL imaging (10 mins post addition of D-Luc at 0.225 mg/ml final concentration) using a cooled CCD camera (1 min and 10 sec for RL and FL imaging, respectively). RL signals were normalized to that of FL signals to account for the effect of the analogues on cell proliferation. […] The effect of the CP9 analogues on degradation of Hsp90 client proteins in 293T cells were also monitored by western blotting as described above.
compound,measurement,setting,value
"Cc1cc(NC(=O)CSc2nc(-c3cccs3)cc(C(F)(F)F)n2)no1 [CP9, N-(5-methylisoxazol-3-yl)-2-(4-(thiophen-2-yl)-6-(trifluoromethyl)pyrimidin-2-ylthio)acetamide]",inhibition at 20 µM,[1],29%
same,decrease in 18F-FDG uptake in tumors relative to carrier control treated mice,"[2]; CP9 treatment, 43 h",40%
same,decrease in 18F-FDG uptake in tumors at 43 h relative to 0 h,"[2]; four doses CP9 80 mg/kg in DMSO, n=10 tumors, p<0.005 vs carrier control",16±9%
same,degradation of pAkt/total Akt and Raf-1,pAkt/total Akt and Raf-1,dose-dependent decreases
